Laboratory results published in ChEMBL document CHEMBL1156255, “Hit to lead optimization of pyrazolo[1,5-a]pyrimidines as B-Raf kinase inhibitors” (Bioorg Med Chem Lett, 2009).
Values belong to the compound of their own block, whether it stands above or below them.

Columns and labels:
[1] = target: Serine/threonine-protein kinase B-raf (Homo sapiens, UniProt P15056); assay: Inhibition of b-Raf
[2] = target: Tyrosine-protein kinase ABL1 (Homo sapiens, UniProt P00519); assay: Inhibition of Abl1
Caco-2 = assay: Antiproliferative activity against human Caco-2 cells; assay type: functional, cell-based
[3] = Antiproliferative activity against human WM266.4 cells; assay type: functional, cell-based; settings: WM 266-4
[4] = target: Mitogen-activated protein kinase 14 (Homo sapiens, UniProt Q16539); assay: Inhibition of P38alpha
[5] = target: 3-phosphoinositide-dependent protein kinase 1 (Homo sapiens, UniProt O15530); assay: Inhibition of PDK1
[6] = target: Cyclin-dependent kinase 2 (Homo sapiens, UniProt P24941); assay: Inhibition of CDK2
HT-29 = assay: Antiproliferative activity against human HT-29 cells; assay type: functional, cell-based
[7] = target: Protein kinase C beta type (Homo sapiens, UniProt P05771); assay: Inhibition of PKCbeta
[8] = target: Inhibitor of nuclear factor kappa-B kinase subunit beta (Homo sapiens, UniProt O14920); assay: Inhibition of IKK-beta
[9] = target: Mitogen-activated protein kinase 8 (Homo sapiens, UniProt P45983); assay: Inhibition of JNK1
BXPC-3 = assay: Antiproliferative activity against human BxPC3 cells; assay type: functional, cell-based
[10] = target: Tyrosine-protein kinase Fyn (Homo sapiens, UniProt P06241); assay: Inhibition of Fyn
[11] = Inhibition of CK1gamma
[12] = Inhibition of PKA
[13] = target: Cyclin-dependent kinase 1 (Homo sapiens, UniProt P06493); assay: Inhibition of CDK1
Chain of Cyclin-dependent kinase 1 (P06493 whole entry): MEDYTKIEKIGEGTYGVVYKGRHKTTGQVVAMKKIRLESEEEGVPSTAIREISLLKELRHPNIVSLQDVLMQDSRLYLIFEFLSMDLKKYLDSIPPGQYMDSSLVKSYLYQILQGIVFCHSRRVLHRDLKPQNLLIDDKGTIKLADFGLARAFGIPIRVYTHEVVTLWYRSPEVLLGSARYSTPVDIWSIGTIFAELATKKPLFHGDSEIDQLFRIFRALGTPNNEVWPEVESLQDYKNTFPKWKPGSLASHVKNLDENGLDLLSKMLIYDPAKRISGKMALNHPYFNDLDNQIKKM

[14] = target: Mitogen-activated protein kinase 1 (Homo sapiens, UniProt P28482); assay: Inhibition of ERK2
Chain of Mitogen-activated protein kinase 1 (P28482 whole entry, canonical isoform): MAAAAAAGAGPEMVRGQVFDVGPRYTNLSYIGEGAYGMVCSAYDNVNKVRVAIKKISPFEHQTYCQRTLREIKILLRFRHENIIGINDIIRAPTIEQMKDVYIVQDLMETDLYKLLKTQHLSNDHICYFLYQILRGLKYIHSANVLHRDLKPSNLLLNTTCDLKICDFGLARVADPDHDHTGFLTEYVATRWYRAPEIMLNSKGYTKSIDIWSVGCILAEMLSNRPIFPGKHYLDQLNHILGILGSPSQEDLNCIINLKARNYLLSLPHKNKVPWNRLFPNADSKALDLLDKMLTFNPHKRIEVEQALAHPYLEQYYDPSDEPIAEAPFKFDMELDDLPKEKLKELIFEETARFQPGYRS

[15] = target: Phosphatidylinositol 4,5-bisphosphate 3-kinase catalytic subunit alpha isoform (Homo sapiens, UniProt P42336); assay: Inhibition of PI3Kalpha
Chain of Phosphatidylinositol 4,5-bisphosphate 3-kinase catalytic subunit alpha isoform (P42336 whole entry, canonical isoform): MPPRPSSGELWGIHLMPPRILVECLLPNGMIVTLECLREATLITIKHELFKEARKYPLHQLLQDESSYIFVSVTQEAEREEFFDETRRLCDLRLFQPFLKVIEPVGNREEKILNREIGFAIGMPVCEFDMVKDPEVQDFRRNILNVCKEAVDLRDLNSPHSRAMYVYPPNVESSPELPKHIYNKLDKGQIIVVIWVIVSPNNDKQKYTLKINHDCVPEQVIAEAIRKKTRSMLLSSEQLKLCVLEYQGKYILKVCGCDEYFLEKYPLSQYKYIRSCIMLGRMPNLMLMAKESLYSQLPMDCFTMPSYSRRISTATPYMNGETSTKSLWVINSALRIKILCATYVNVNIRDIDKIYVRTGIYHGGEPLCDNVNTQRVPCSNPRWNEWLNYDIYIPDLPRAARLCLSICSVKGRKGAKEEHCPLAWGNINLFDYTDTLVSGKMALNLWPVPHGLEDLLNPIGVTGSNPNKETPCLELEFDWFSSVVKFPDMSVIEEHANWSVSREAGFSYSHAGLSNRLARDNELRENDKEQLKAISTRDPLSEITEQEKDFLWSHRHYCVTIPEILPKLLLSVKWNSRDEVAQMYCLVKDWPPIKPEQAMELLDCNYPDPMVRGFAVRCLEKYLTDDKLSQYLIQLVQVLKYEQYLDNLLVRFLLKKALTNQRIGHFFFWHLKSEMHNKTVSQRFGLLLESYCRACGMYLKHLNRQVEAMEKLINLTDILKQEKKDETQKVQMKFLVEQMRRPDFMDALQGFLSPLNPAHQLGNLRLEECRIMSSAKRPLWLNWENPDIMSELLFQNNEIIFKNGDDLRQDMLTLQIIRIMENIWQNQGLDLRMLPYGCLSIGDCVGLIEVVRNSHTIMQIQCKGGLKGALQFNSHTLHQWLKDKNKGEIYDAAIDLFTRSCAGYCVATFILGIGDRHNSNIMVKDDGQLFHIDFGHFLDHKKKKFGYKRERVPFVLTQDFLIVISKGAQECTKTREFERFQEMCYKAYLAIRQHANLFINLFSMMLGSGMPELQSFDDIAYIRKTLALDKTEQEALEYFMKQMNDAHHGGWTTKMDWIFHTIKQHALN

[16] = Metabolic stability in nude mouse microsomes assessed as half life; assay type: ADME, Microsome
[17] = Half life in rat microsomes; assay type: ADME, Microsome
[18] = target: RAC-alpha serine/threonine-protein kinase (Homo sapiens, UniProt P31749); assay: Inhibition of PKBalpha
Chain of RAC-alpha serine/threonine-protein kinase (P31749 whole entry): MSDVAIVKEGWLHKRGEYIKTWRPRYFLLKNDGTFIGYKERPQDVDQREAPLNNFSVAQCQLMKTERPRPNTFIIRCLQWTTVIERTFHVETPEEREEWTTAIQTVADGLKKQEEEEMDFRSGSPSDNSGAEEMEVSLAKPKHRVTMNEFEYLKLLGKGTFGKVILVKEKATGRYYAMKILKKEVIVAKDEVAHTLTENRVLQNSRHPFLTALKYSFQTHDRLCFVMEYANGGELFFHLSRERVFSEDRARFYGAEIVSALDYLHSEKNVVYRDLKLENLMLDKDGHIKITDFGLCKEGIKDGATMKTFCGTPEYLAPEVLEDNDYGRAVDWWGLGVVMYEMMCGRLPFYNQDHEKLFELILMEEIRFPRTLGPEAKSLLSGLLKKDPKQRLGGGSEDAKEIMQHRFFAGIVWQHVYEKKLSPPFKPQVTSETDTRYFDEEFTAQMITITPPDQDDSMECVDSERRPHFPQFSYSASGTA

[19] = target: Serine/threonine-protein kinase mTOR (Homo sapiens, UniProt P42345); assay: Inhibition of mTOR
A-375 = assay: Antiproliferative activity against human A375 cells; assay type: functional, cell-based
[20] = Inhibition of RSK
[21] = target: Mitogen-activated protein kinase kinase kinase kinase 2 (Homo sapiens, UniProt Q12851); assay: Inhibition of GCK
[22] = target: Mitogen-activated protein kinase kinase kinase 8 (Homo sapiens, UniProt P41279); assay: Inhibition of TPL2
[23] = target: Rho-associated protein kinase 1 (Homo sapiens, UniProt Q13464); assay: Inhibition of ROCK1
[24] = target: Protein kinase C alpha type (Homo sapiens, UniProt P17252); assay: Inhibition of PKCalpha
[25] = target: Tyrosine-protein kinase Lck (Homo sapiens, UniProt P06239); assay: Inhibition of LCK
[26] = target: Proto-oncogene tyrosine-protein kinase Src (Homo sapiens, UniProt P12931); assay: Inhibition of Src
[27] = Permeability at pH 7.4 by PAMPA; assay type: ADME; settings: read-out: permeability
[28] = Inhibition of p70S6K
[29] = target: MAP kinase-activated protein kinase 2 (Homo sapiens, UniProt P49137); assay: Inhibition of MK2
[30] = target: Insulin-like growth factor 1 receptor (Homo sapiens, UniProt P08069); assay: Inhibition of IGFR1
Chain of Insulin-like growth factor 1 receptor (P08069 31-736 limits assumed): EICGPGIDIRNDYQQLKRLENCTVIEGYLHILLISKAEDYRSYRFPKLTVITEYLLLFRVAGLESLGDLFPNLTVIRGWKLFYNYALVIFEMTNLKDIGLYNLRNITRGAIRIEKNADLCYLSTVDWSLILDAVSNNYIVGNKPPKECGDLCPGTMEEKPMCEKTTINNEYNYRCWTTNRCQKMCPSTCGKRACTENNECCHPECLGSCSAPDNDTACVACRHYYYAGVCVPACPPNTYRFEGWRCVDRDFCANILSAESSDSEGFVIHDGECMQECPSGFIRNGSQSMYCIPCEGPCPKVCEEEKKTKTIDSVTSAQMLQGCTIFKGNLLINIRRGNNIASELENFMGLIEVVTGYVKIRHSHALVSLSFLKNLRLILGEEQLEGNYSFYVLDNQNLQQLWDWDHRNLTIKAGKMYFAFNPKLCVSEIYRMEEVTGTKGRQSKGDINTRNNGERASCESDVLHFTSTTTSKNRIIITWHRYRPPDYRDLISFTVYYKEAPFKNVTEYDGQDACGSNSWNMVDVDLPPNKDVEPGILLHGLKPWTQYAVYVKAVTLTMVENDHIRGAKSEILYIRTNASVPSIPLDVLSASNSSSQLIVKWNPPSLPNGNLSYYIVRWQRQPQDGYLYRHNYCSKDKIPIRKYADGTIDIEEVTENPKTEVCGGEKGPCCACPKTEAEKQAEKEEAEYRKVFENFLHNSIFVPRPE
Chain of Insulin-like growth factor 1 receptor (P08069 741-1367 limits assumed): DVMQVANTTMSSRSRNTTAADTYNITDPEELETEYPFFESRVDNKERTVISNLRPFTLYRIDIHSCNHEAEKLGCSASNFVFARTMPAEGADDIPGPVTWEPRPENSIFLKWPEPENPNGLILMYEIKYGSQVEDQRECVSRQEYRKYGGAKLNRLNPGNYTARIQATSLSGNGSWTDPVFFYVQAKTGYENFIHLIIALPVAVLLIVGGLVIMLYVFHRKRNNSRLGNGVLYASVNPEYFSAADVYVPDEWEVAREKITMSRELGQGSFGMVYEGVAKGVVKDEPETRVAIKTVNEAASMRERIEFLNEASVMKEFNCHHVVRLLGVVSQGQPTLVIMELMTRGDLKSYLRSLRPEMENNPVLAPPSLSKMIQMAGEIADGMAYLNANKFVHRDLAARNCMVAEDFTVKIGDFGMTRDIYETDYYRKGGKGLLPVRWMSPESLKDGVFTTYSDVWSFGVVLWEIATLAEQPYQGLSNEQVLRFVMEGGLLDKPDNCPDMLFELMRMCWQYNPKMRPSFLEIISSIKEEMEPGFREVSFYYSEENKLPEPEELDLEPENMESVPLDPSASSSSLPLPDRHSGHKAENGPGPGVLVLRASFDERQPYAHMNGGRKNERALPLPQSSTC

[31] = target: Serine/threonine-protein kinase PLK1 (Homo sapiens, UniProt P53350); assay: Inhibition of PLK1
LoVo = assay: Antiproliferative activity against human LoVo cells; assay type: functional, cell-based
[32] = target: Serine/threonine-protein kinase Chk1 (Homo sapiens, UniProt O14757); assay: Inhibition of CHK1

Chain of Serine/threonine-protein kinase B-raf (P15056 whole entry): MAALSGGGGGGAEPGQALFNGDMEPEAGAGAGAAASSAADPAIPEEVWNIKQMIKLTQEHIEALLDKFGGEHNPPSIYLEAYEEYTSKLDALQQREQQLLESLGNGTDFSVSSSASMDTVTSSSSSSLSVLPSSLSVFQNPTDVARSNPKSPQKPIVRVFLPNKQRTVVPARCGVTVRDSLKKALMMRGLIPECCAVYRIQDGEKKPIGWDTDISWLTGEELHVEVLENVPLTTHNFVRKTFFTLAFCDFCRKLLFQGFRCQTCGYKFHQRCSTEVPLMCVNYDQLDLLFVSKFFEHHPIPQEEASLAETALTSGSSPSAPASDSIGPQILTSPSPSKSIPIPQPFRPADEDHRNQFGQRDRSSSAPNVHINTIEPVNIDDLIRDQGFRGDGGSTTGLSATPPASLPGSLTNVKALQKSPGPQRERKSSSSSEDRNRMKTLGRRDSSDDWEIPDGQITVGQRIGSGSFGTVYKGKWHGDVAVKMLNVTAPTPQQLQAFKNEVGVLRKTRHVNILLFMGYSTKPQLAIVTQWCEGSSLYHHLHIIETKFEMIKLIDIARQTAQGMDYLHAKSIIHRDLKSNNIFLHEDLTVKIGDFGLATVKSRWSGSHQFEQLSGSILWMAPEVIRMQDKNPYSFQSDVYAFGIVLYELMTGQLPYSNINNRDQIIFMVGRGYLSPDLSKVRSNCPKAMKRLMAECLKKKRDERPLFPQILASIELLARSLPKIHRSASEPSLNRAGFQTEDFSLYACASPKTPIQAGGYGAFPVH

IC50 [1]: 0.1 µM
Structure (SMILES): Cn1cncc1-c1cc2nccc(-c3cccc(NC(=O)c4cccc(C(F)(F)F)c4)c3)n2n1

IC50 [2]: > 50 µM
IC50 (Caco-2): 2.6 µM
IC50 [4]: > 50 µM
IC50 [5]: > 50 µM
IC50 [6]: > 50 µM
IC50 (HT-29): 0.35 µM
IC50 [7]: > 50 µM
IC50 [8]: > 50 µM
IC50 [9]: > 50 µM
IC50 (BXPC-3): 3.1 µM
IC50 [10]: > 50 µM
IC50 [11]: > 50 µM
IC50 [12]: > 50 µM
IC50 [13]: > 50 µM
IC50 [14]: > 50 µM
IC50 [15]: > 50 µM
half-life [16]: 24 min
half-life [17]: > 30 min
IC50 [18]: > 50 µM
IC50 [19]: > 50 µM
IC50 (A-375): 0.28 µM
IC50 [20]: > 50 µM
IC50 [21]: > 50 µM
IC50 [22]: > 50 µM
IC50 [23]: > 50 µM
IC50 [24]: > 50 µM
IC50 [25]: > 50 µM
IC50 [26]: > 50 µM
Papp [27]: 251 ×10⁻⁶ cm/s
IC50 [28]: > 50 µM
IC50 [29]: > 50 µM
IC50 [30]: > 50 µM
IC50 [31]: > 50 µM
IC50 (LoVo): 0.4 µM
IC50 [32]: > 50 µM
Structure (SMILES): O=C(Nc1cccc(-c2ccnc3cc(-c4ccncc4)nn23)c1)c1cccc(C(F)(F)F)c1
IC50 [3]: 3.5 µM

IC50 [1]: 1.6 µM
Structure (SMILES): O=C(Nc1cccc(-c2ccnc3cc(-c4cnc[nH]4)nn23)c1)c1cccc(C(F)(F)F)c1

IC50 [1]: > 10 µM
Structure (SMILES): O=C(Nc1cccc(-c2ccnc3cc(-c4cccnc4)nn23)c1)c1cccc(C(F)(F)F)c1

Further lines, the compound ahead of its results:

Structure (SMILES): O=C(Nc1cccc(-c2ccnc3cc(-c4ccnc(NCCCN5CCCC5=O)c4)nn23)c1)c1cccc(C(F)(F)F)c1
IC50 [1]: 0.11 µM

Structure (SMILES): O=C(Nc1cccc(-c2ccnc3cc(-c4ccnc(NCCCN5CCOCC5)c4)nn23)c1)c1cccc(C(F)(F)F)c1
IC50 [1]: 0.13 µM

Structure (SMILES): O=C(Nc1cccc(-c2ccnc3cc(-c4ccncc4)nn23)c1)c1ccc(Cl)c(Cl)c1
IC50 [1]: 0.66 µM

Structure (SMILES): O=C(Nc1cccc(-c2ccnc3cc(-c4ccnc(NCCCc5ncc[nH]5)c4)nn23)c1)c1cccc(C(F)(F)F)c1
IC50 [1]: 0.066 µM

Structure (SMILES): O=C(Nc1cccc(-c2ccnc3cc(-c4ccncc4)nn23)c1)c1ccc(Cl)c(C(F)(F)F)c1
IC50 [1]: 0.06 µM

Structure (SMILES): O=C(Nc1cccc(-c2ccnc3cc(-c4ccncc4)nn23)c1)Nc1ccc(Cl)c(C(F)(F)F)c1
IC50 [1]: 0.04 µM
